In paper PMC9403987 (Frontiers in Oncology, 2022):

What was measured:
Assay in all cases: Cell proliferation assay
Assay type in all cases: cell-based, Homo sapiens
NCI-H23 = conditions: NCI-H23, lung, NSCLC, 72 hours
Description: (§1) To quantify cell proliferation, either the nuclei of live cells were counted following staining with 4’,6-diamidino-2-phenylindole (DAPI; Sigma-Aldrich, Burlington, MA, USA), or metabolically active cells were detected using a CellTiter-Glo assay (Promega Corporation, Madison, WI, USA). Cells from a range of human and mammalian tumor cell lines (American Type Culture Collection, Manassas, VA, USA) were seeded at 4000 cells per well in 100 μL of culture medium in a 96-well plate and incubated overnight at 37°C with 5% CO2. […] In the DAPI staining method, cells were washed using 1× phosphate-buffered saline (PBS; Gibco Thermo Fisher Scientific, Waltham, MA, USA), fixed with 4% formaldehyde, permeabilized with 0.2% Triton X-100 (Sigma-Aldrich), washed again, and stained with 1 μg/mL DAPI to visualize cell nuclei. Cells were washed with 1× PBS three times, and 100 μL 1× PBS was added to each well. Plates were scanned using an IN Cell Analyzer 2200 (GE Healthcare Life Sciences, Chicago, IL, USA) and the number of cells per well was recorded. In the CellTiter-Glo assay, 60 μL of CellTiter-Glo luminescent solution was added to each well after incubation with the test compounds, and the assay plate was scanned using a Tecan Infinite M1000 PRO microplate reader (Tecan Group AG, Männedorf, Switzerland) to record luminescent signals.

NCI-H292 = conditions: NCI-H292, lung, mucoepidermoid pulmonary carcinoma, 72 hours
Description: as §1

NCI-H520 = conditions: NCI-H520, lung carcinoma, 72 hours
Description: as §1

Li-7 = conditions: Li-7, liver, hepatocellular carcinoma, 72 hours
Description: as §1

HT29 = conditions: HT29, colon carcinoma, 72 hours
Description: as §1

NCI-H1299 = conditions: NCI-H1299, lung, NSCLC, 72 hours
Description: as §1

SNU-398 = conditions: SNU-398, liver, hepatocellular carcinoma, 72 hours
Description: as §1

A172 = conditions: A172, brain, glioblastoma, 72 hours
Description: as §1

HL7702 = conditions: HL7702, liver, 72 hours
Description: as §1

IMR32 = conditions: IMR32, brain, neuroblastoma, 72 hours
Description: as §1

HCCLM3 = conditions: HCCLM3, liver, hepatocellular carcinoma, 72 hours
Description: as §1

KP-N-YN = conditions: neural, neuroblastoma, 72 hours
Description: as §1

Caco-2 = conditions: Caco-2, colorectal carcinoma, 72 hours
Description: as §1

SNU-423 = conditions: SNU-423, liver, hepatocellular carcinoma, 72 hours
Description: as §1

SNU-886 = conditions: SNU-886, liver, hepatocellular carcinoma, 72 hours
Description: as §1

T98G = conditions: brain, glioblastoma, 72 hours
Description: as §1

Huh-1 = conditions: Huh-1, liver, hepatocellular carcinoma, 72 hours
Description: as §1

Hep G2 = conditions: Hep G2, liver, hepatocellular carcinoma, 72 hours
Description: as §1

SNU-182 = conditions: SNU-182, liver, hepatocellular carcinoma, 72 hours
Description: as §1

PC-9 = conditions: PC-9, lung carcinoma, 72 hours
Description: as §1

SNU-368 = conditions: SNU-368, liver, hepatocellular carcinoma, 72 hours
Description: as §1

NCI-H1155 = conditions: NCI-H1155, lung, NSCLC, 72 hours
Description: as §1

NCI-H1792 = conditions: NCI-H1792, lung carcinoma, 72 hours
Description: as §1

SK-MES-1 = conditions: SK-MES-1, lung carcinoma, 72 hours
Description: as §1

MHCC97 = conditions: MHCC97, liver, hepatocellular carcinoma, 72 hours
Description: as §1

MCF-7 = conditions: MCF-7, breast carcinoma, 72 hours
Description: as §1

SNU-387 = conditions: SNU-387, liver, hepatocellular carcinoma, 72 hours
Description: as §1

A549 = conditions: A549, lung carcinoma, 72 hours
Description: as §1

Du4475 = conditions: Du4475, breast carcinoma, 72 hours
Description: as §1

M059K = conditions: brain, glioblastoma, 72 hours
Description: as §1

KNS-81 = conditions: KNS-81, brain, glioblastoma, 72 hours
Description: as §1

Huh-7 = conditions: Huh-7, liver, hepatocellular carcinoma, 72 hours
Description: as §1

BEL7405 = conditions: BEL7405, liver, hepatocellular carcinoma, 72 hours
Description: as §1

JHH-7 = conditions: JHH-7, liver, hepatocellular carcinoma, 72 hours
Description: as §1

**Q.** Which IC50 (NCI-H23; Homo sapiens) does the source give for `CCN1CCN(Cc2ccc(Nc3ncc(F)c(-c4cc(F)c5nc(C)n(C(C)C)c5c4)n3)nc2)CC1` [Abemaciclib, abemaciclib, reference compound] here?
**A.** 0.904 µM

**Q.** What about the IC50 (NCI-H292; Homo sapiens) of the same molecule?
**A.** 0.149 µM

**Q.** And the IC50 (NCI-H520; Homo sapiens)?
**A.** 0.364 µM

**Q.** And the IC50 (Li-7; Homo sapiens)?
**A.** 6.29 µM

**Q.** What about the IC50 (HT29; Homo sapiens, HT-29) of the same molecule?
**A.** 1.84 µM

**Q.** What about the IC50 (NCI-H1299; Homo sapiens) of the same molecule?
**A.** 0.463 µM

**Q.** What about the IC50 (SNU-398; Homo sapiens) of the same molecule?
**A.** 0.173 µM

**Q.** What about the IC50 (A172; Homo sapiens, A 172) of the same molecule?
**A.** 0.112 µM

**Q.** What about the IC50 (HL7702; Homo sapiens, L02) of the same molecule?
**A.** 1.72 µM

**Q.** What about the IC50 (IMR32; Homo sapiens, IMR-32) of the same molecule?
**A.** 0.025 µM

**Q.** And the IC50 (HCCLM3; Homo sapiens)?
**A.** 3.1 µM

**Q.** And the IC50 (KP-N-YN; Homo sapiens)?
**A.** 0.827 µM

**Q.** And the IC50 (Caco-2; Homo sapiens)?
**A.** 0.395 µM

**Q.** And the IC50 (SNU-423; Homo sapiens)?
**A.** 0.048 µM

**Q.** What about the IC50 (SNU-886; Homo sapiens) of the same molecule?
**A.** 0.025 µM

**Q.** And the IC50 (T98G; Homo sapiens)?
**A.** 0.168 µM

**Q.** And the IC50 (Huh-1; Homo sapiens)?
**A.** 0.365 µM

**Q.** What about the IC50 (Hep G2; Homo sapiens, HepG2) of the same molecule?
**A.** 3.2 µM

**Q.** And the IC50 (SNU-182; Homo sapiens)?
**A.** > 10 µM

**Q.** What about the IC50 (PC-9; Homo sapiens) of the same molecule?
**A.** 0.457 µM

**Q.** What about the IC50 (SNU-368; Homo sapiens) of the same molecule?
**A.** 0.034 µM

**Q.** And the IC50 (NCI-H1155; Homo sapiens)?
**A.** 2.41 µM

**Q.** What about the IC50 (NCI-H1792; Homo sapiens) of the same molecule?
**A.** 0.023 µM

**Q.** What about the IC50 (SK-MES-1; Homo sapiens) of the same molecule?
**A.** 0.148 µM

**Q.** And the IC50 (MHCC97; Homo sapiens)?
**A.** 1.1 µM

**Q.** What about the IC50 (MCF-7; Homo sapiens, MCF7) of the same molecule?
**A.** 0.006 µM

**Q.** And the IC50 (SNU-387; Homo sapiens)?
**A.** 0.193 µM

**Q.** What about the IC50 (A549; Homo sapiens) of the same molecule?
**A.** 0.104 µM

**Q.** And the IC50 (Du4475; Homo sapiens, DU-4475)?
**A.** 10 µM

**Q.** And the IC50 (M059K; Homo sapiens)?
**A.** 0.871 µM

**Q.** And the IC50 (KNS-81; Homo sapiens)?
**A.** 0.106 µM

**Q.** And the IC50 (Huh-7; Homo sapiens)?
**A.** 0.075 µM

**Q.** And the IC50 (BEL7405; Homo sapiens)?
**A.** 2.14 µM

**Q.** What about the IC50 (JHH-7; Homo sapiens, JHH7) of the same molecule?
**A.** 1.17 µM

**Q.** Which results are given for `CC1=Nc2c(F)cc(-c3nc(Nc4ccc(C5CCN(C)CC5)cn4)ncc3F)cc2C12CCCC2` [GLR2007]?
**A.** IC50 (NCI-H23): 0.243 µM; IC50 (NCI-H292): 0.073 µM; IC50 (NCI-H520): 0.241 µM; IC50 (Li-7): 0.712 µM; IC50 (HT29): 0.601 µM; IC50 (NCI-H1299): 0.564 µM; IC50 (SNU-398): 0.051 µM; IC50 (A172): 0.041 µM; IC50 (HL7702): 1.94 µM; IC50 (IMR32): 0.021 µM; IC50 (HCCLM3): 1.84 µM; IC50 (KP-N-YN): 0.657 µM; IC50 (Caco-2): 0.453 µM; IC50 (SNU-423): 0.019 µM; IC50 (SNU-886): 0.006 µM; IC50 (T98G): 0.11 µM; IC50 (Huh-1): 0.261 µM; IC50 (Hep G2): 2.55 µM; IC50 (SNU-182): 2.24 µM; IC50 (PC-9): 0.18 µM; IC50 (SNU-368): 0.013 µM; IC50 (NCI-H1155): 1.82 µM; IC50 (NCI-H1792): 0.003 µM; IC50 (SK-MES-1): 0.067 µM; IC50 (MHCC97): 0.353 µM; IC50 (MCF-7): 0.002 µM; IC50 (SNU-387): 0.068 µM; IC50 (A549): 0.066 µM; IC50 (Du4475): 2.04 µM; IC50 (M059K): 3.25 µM; IC50 (KNS-81): 0.033 µM; IC50 (Huh-7): 0.043 µM; IC50 (BEL7405): 1.15 µM; IC50 (JHH-7): 0.578 µM
